In article PMC5936786, “Discovery of Natural Products as Novel and Potent FXR Antagonists by Virtual Screening” (Frontiers in Chemistry, 2018):
Entries after “also recorded” stand apart in the source; their conditions may differ. Where two headings read alike, the source gives them in different places.

Tests used:
[1] = target: T1, hFXR-LBD (interaction with coactivator SRC-1) (Homo sapiens, UniProt Q96RI1); assay: Y2H agonist assay: SRC-1 recruitment to FXR-LBD (α-galactosidase readout); format: cell-based; settings: GAtreated/GADMSO (DMSO = 1.00), average of triplicate
T1 construct: human FXRα-LBD (200-473 AA) was sub-cloned into vector pGBKT-7; expressed in transfected cells; host or cells: Saccharomyces cerevisiae strain AH109 (Clontech), co-transformed with pGBKT7-FXR LBD and pGADT7-SRC-1
T1 sequence (Q96RI1 214-486): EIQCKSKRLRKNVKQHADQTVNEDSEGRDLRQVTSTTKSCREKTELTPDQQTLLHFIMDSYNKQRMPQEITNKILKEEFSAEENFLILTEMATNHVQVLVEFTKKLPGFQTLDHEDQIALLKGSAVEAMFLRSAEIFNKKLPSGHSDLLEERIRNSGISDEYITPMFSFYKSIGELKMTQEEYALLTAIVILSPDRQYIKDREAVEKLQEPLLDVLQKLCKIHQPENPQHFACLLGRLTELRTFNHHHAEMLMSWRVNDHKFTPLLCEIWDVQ
Excerpt: Each experiment was repeated three times independently.
agonistic activation=GAtreated/GADMSOinhibition rate(%)=GACDCA−GAtreated/GACDCA−GADMSO
where GA indicates α-galactosidase activity.

[2] = tested on: estrogen receptor (ER); settings: cited from earlier work; for agonistic profiles against ER (in words): ref Cao et al., 2013
[3] = target: T2, hFXR-LBD (interaction with coactivator SRC-1) (Homo sapiens, UniProt Q96RI1); assay: Y2H antagonist assay: inhibition of CDCA-induced SRC-1 recruitment to FXR-LBD (α-galactosidase readout); settings: for antagonistic activity against FXR (in words): coactivator recruitment assay; for inhibition at 25 µM: read-out: Inhibition rate % (25 μM), 25 μM compound plus 10 μM CDCA, 24 h, average of triplicate
T2 sequence (Q96RI1 200-472 isoform Q96RI1-2): T1 sequence (Q96RI1 214-486)
Description: We performed Y2H assay to determine the agonistic or antagonistic activities of the compounds. […] The quantitative α-galactosidase activity assays were carried out by using PNP-α-Gal as the substrate according to the Clontech manual. Each experiment was repeated three times independently.
• Vortex the overnight culture tube for 0.5–1 min to disperse cell clumps and then each sample needs 200 μL to record the exact OD600. • Centrifuge the tube at 14,000 rpm (10,000 × g) for 30 s. Incubate 16 μL cell culture medium supernatant with 48 μL PNP-α-Gal at 30°C for 60 min. Be sure to cover microtiter plates with a lid or parafilm to prevent evaporation. • Terminate the reaction by adding 136 μL of 1 μM sodium carbonate. Record the optical density of each sample at 410 nm.
The α-galactosidase activity was calculated according to the following formula:
α−galactosidase activity[milliunits/(mL×cell)]​ ​​​=OD410×Vf×1000/(ε×b)×t×Vi×OD600
The agonistic activation and inhibition rates (%) were calculated as follows:

[4] = tested on: FXR; settings: cited from earlier work
[5] = tested on: FXR; settings: FXR antagonist, cited from earlier work
[6] = tested on: FXR; settings: FXR antagonist, cited from earlier work; remark: listed apart in the source
[7] = tested on: FXR; parameters: method as in Dussault et al., 2003; settings: FXR antagonist; ref Dussault et al., 2003; cited from earlier work
[8] = tested on: FXR; parameters: method as in Xu et al., 2015; settings: FXR antagonist; ref Xu et al., 2015; cited from earlier work

Agonistic activation (25 μM) [1]	IC50 [3]	inhibition at 25 µM [3]	Compound	antagonistic activity against FXR (in words) [3]	further results
1.05	1.29 µM		CC(C)(O)c1ccc2c(c1)C(=O)CC1[C@](C)(C(=O)O)CCC[C@]21C (stereo partly drawn) [Compound 2a, 15-Hydroxy-7-oxo-8,11,13-abietatrien-18-oic acid]		fold stronger antagonistic activity compared with compound 1a ([3]; vs compound 1a): 10 fold
0.90	> 25 µM	10.1%	CC(=O)c1ccc2c(c1)C(=O)CC1[C@](C)(C(=O)O)CCC[C@]21C (stereo partly drawn) [Compound 2b, 17-Nor-7,15-dion-8,11,13-abietatrien-18-oic acid]	no observed activity	
1.03	1.79 µM		O=C(CCCCc1ccccc1)c1ccc(O)cc1 [Compound 3a, Daphneone]		fold higher antagonistic activity against FXR compared to guggulsterone [3]: 3 fold
0.76	> 25 µM	41.4%	O=C(CC(O)CCc1ccccc1)c1ccc(O)cc1 (stereo not drawn) [Compound 3b, Daphneolon]		
1.29	5.46 µM	> 50%	O=C(/C=C/CCc1ccccc1)c1ccc(O)cc1 [Compound 3c, Daphnenone]		
1.08	14.1 µM	52.8%	O=C(O)C=Cc1ccc(O)cc1 [Compound 3d, P-coumaric acid]	moderate antagonistic activities; also recorded: moderate antagonistic effects	agonistic profiles against ER (in words) [2]: agonistic profiles
0.93	19.3 µM	60.1%	CCOC(=O)c1ccc(O)cc1 [Compound 3e, Ethylparaben]	moderate antagonistic activities; also recorded: moderate antagonistic effects	agonistic profiles against ER (in words) [2]: agonistic profiles
			CC1(CO)CCCC2(C)C1CCC1(C)C2CC(O)C2(C)C3COC(=O)C3=CCC12 (stereo not drawn) [Compound 8]		IC50 ([5]; ref Nam et al., 2007): 2.4 µM
			CC(C)=CCCC1=C[C@@H](C/C(C)=C/CC[C@@]2(C)C=Cc3cc(O)cc(C)c3O2)OC1=O [Compound 10]		IC50 ([5]; ref Choi et al., 2011): 1.5 µM
			COc1cc(/C=C2\C(=O)N(c3cccc([N+](=O)[O-])c3)N=C2c2ccccc2)ccc1O [Compound 11]		IC50 ([6]; ref Huang et al., 2012): 8.96 µM
			CCCCCCCc1c(\C(C)=C/C=C/C(C)=C/C(=O)O)cc(C(C)C)cc1C(C)C [Compound 14]		IC50 [7]: 0.3 µM
			CCCCC/C=C/C=C1/C=CC(=O)[C@@H]1C/C=C\CCCC(=O)O [Compound 17]		IC50 ([6]; ref Xu et al., 2013): 7.25 µM
			CN(C)c1cc(Cl)c(C(=O)N(Cc2ccccc2)c2ccc(O)c(C(C)(C)C)c2)c(Cl)c1 [Compound 18, N-benzyl-N-(3-(tert-butyl)-4-hydroxyphenyl)-2,6-dichloro-4-(dimethylamino) benzamide]		IC50 [8]: 3.4 µM
			COC(=O)/C=C/c1cccc(N(Cc2ccc(-c3ccc(N(C)C)cc3)cc2)C(=O)C2CCCCC2)c1 [Fexeramine, Fexaramine]		EC50 ([4]; reported FXR modulators, Figure 1, reference not given, read-out: EC50, FXR agonists (Figure 1)): 0.025 µM

Compound	Agonistic activation (25 μM) [1]	IC50 [3]	inhibition at 25 µM [3]	antagonistic activity against FXR (in words) [3]	further results
C/C(=C/C(=O)C[C@@H](C)[C@]1(C)CC[C@@]2(C)C3=CCC4C(C)(C)[C@H](O)CC[C@]4(C)[C@@H]3CC=C21)C(=O)O (stereo partly drawn) [Compound 1a, Abiesatrine B]	1.09	13.5 µM	> 50%	moderate antagonistic activity	agonistic effect against estrogen receptor (ER) (in words) ([2]; reported in a previous study, no reference given): moderate agonistic effect
C/C(=C/C(=O)C[C@@H](C)[C@H]1CC[C@@]2(C)C3=CCC4C(C)(C)C(=O)CC[C@]4(C)C3CC[C@]12C)C(=O)O (stereo partly drawn) [Compound 1b, (24Z)-3,23-Dioxo-9βH-lanosta-7,24-dien-27-oic acid]	1.12	> 25 µM	22.7%	no detectable antagonistic activity	
C/C(=C\CC[C@@H](C)[C@H]1CC[C@@]2(C)C3=CCC4C(C)(C)C(=O)CC[C@]4(C)C3CC[C@]12C)C(=O)O (stereo partly drawn) [Compound 1c, Abiesatrine D]	0.93	> 25 µM	12.8%	no detectable antagonistic activity	
